Key:
[1] = test system: AFF1 and AFF4 occupancy on chromatin; assay: ChIP-seq of AFF1 and AFF4 chromatin occupancy in HEK293T cells; type: cell-based, human; conditions: 6 hr
From the text: FIG. 1. Peptidomimetic identification of disruptors of the AFF4-CCNT1 interaction within the Super Elongation Complex. (A) Schematic for the identification of small molecule inhibitors of the AFF4-CCNT1 interaction using in silico high-throughput screening. Compounds from the ZINC database were docked with the AFF4-CCNT1 structure (4IMY) using a three-tier glide-docking algorithm, which led to 40 candidates. Residues forming the deep binding pocket of CCNT1 are labeled orange and residues of the AFF4 peptide are labeled red. (B) Validation screening identified KL-1 as a potential SEC disruptor using AlphaLISA screening. […] The Ki constants of both compounds were measured with the AlphaLISA assays. […] 5 μl, 10 and 20 μl cell lysates were loaded and the protein levels of AFF1, AFF4, CCNT1, CDK9 and Tubulin (load control) were determined by western blotting.
Chromatin Immunoprecipitation Sequencing. […] ChIP-seq reads were aligned to the Drosophila genome (UCSC dm3) or human genome (UCSC hgl9). Alignments were processed with Bowtie version 1.1.2, allowing only uniquely mapping reads with up to two mismatches within the 50 bp read. The resulting reads were extended to 150 bp toward the interior of the sequenced fragment and normalized to total reads aligned (reads per million, r.p.m.). […] P-values were calculated with a two-sided Kolmogorov-Smirnov test. […]

[2] = test system: MYC; assay: mRNA-seq of 293T cells after 24 hr treatment; type: cell-based, human
From the text: FIG. 6. SEC disruption targets MYC and MYC target genes. (A-B) Venn diagram of deregulated genes in 293T cells by KL-1 and KL-2. […] (C) Heat map showing the expression changes in response to SEC inhibitors, with differentially expressed canonical MYC targets, RNA splicing factors, and core SNRP assembly genes highlighted. […] Each cluster is represented by different colors and a circle node denotes each enriched term. (E) MA plots of RNA splicing and Hallmark MYC target genes in KL-2 treated, AFF1 and AFF4 co-depletion, and ELL2-depleted cells. […] The MYC genes, the PRMT5 gene, and genes encoding SEC components are denoted as red squares. (F) Western analysis of MYC protein levels in the MYC lowly expressed small cell lung cancer cell line […] and MYC-amplified small cell lung cancer cell line H2171. […] The SEC and MYC peaks were determined by MACS with a p-value cutoff at 1E-5. […] Both cell lines were treated with increasing concentrations of KL-1 and KL-2 for 3 days and the cell proliferation was measured with CellTiter-Glo luminescent cell viability assay (Promega) (n=3-6).
RNA-seq Analysis. […] Exonic reads were assigned to specific genes from Ensembl release 75 using Bioconductor package GenomicRanges countOverlaps. […] The total number of uniquely mapped reads was provided to edgeR for the calcNormFactors normalization rather than the default column sums. […]

[3] = Toxicity test in mice (body weight, sickness); type: in vivo; conditions: 5 doses of 50 mg/kg, monitored 35 days
Method: FIG. 14, related to FIG. 7. SEC disruptors delay tumor progression and improve survival of MDA231-LM2 tumor mice. (A) KL-1 and KL-2 inhibit the colony formation of MDA231-LM2 cells in vitro. 5×10^3 MDA231-LM2 cells were seeded in 6-well plates and treated with KL-1 or KL-2 at the indicated doses for 5 days. Crystal violet staining was performed to stain the colonies. (B) KL-1 and KL-2 induce apoptosis in MDA231-LM2 cells. Bar graph depiction of Annexin V positive MDA231-LM2 cells after 24 hr of KL-1 and KL-2 treatments at the indicated concentrations. Data are represented as Mean+/−SD. […] Each individual line indicates the weights of each mouse during toxicity test.

## COc1cccc(C(=O)CC(=O)C(=O)Nc2cc(Cl)ccc2C)c1 [KL-1, N-(5-chloro-2-methylphenyl)-4-oxo-4-(3-methoxyphenyl)-2-oxobutanamide]
[1]
  chromatin occupancy of AFF1 and AFF4: decreased occupancy of AFF1 and AFF4
[2]
  MYC expression: led to decreased MYC expression
[3]; intraperitoneal
  weight loss in mice: does not result in significant weight loss
[3]
  sign of sickness in mice: no obvious sign of sickness was observed

Reference: patent US11453640B2, “Small molecules for disrupting the super elongation complex and inhibiting transcription elongation for cancer therapy” (NORTHWESTERN UNIVERSITY, priority 2018, dated 2022)
